Measured values: US20060079453A1, “Hla binding peptides and their uses” (priority 2002, published 2006)
No end group written: not given here.

Experiments:
Experiment in all cases: biochemical
Assay type in all cases: binding
HLA-DR DRB1*1501 (DR15) = HLA-DR DRB1*1501 (DR15) (Homo sapiens, UniProt P01903+P01911); settings: DRBI *1501
HLA-DR DRB1*1101 (DR11) = HLA-DR DRB1*1101 (DR11) (Homo sapiens, UniProt P01903+P01911, A100R/A169T/A87E/I96F/K41T/L162R/M171V/P40S/Q125H/Q178H/Q39Y/Q99D/R42S/S66Y/T262R/V115G/W38E); settings: DRB1 *1101
HLA-DR DRB1*0101 (DR1) = HLA-DR DRB1*0101 (DR1) (Homo sapiens, UniProt P01903+P01911, A100R/D57E/F55L/F60I/F76Y/I96L/L162R/M171V/P40L/Q125E/R42F/V115G/Y59C); settings: DRB1 *0101
HLA-DR DRB1*1302 (DR13) = HLA-DR DRB1*1302 (DR13) (Homo sapiens, UniProt P01903+P01911, A100E/A169T/K41T/L162R/M171V/P40S/Q125H/Q178H/Q39Y/Q99D/R42S/S66N/T262R/V115G/W38E/Y61H); settings: DRBI *1302
HLA-DR DRB1*0301 (DR3) = HLA-DR DRB1*0301 (DR3) (Homo sapiens, UniProt P01903+P01911, A100K/A102G/A103R/A169T/F55Y/I96L/K41T/L162R/M171V/P40S/Q125H/Q178H/Q39Y/R42S/S66N/T106N/T262R/W38E/Y61H)
HLA-DR DRB3*0101 (DR52) = HLA-DR DRB3*0101 (DR52) (Homo sapiens, UniProt P01903+P79483)
HLA-DR DRB1*0802 (DR8) = HLA-DR DRB1*0802 (DR8) (Homo sapiens, UniProt P01903+P01911, A100R/A103L/A169T/F76Y/H45Y/I96F/K41T/L162R/M171V/P40S/Q125H/Q178H/Q39Y/Q99D/R218S/R42G/S66Y/V115G/W38E)
HLA-DR DRB1*0401 (DR4) = HLA-DR DRB1*0401 (DR4) (Homo sapiens, UniProt P01903+P01911, A100K/A169T/F76Y/I96L/K127E/L162R/M171V/N62H/P40V/Q125Y/R42H/S133A/S149N/S66Y/V115G/V209L/W38E); settings: DRB1 *0401
HLA-DR DRB5*0101 (DR51) = HLA-DR DRB5*0101 (DR51) (Homo sapiens, UniProt P01903+Q30154); settings: DRB5 *0101
HLA-DR DRB1*0901 (DR9) = HLA-DR DRB1*0901 (DR9) (Homo sapiens, UniProt P01903+P01911, A100R/A103E/D57H/D86V/F55Y/F60I/F76Y/I96F/K127E/L162R/M171V/P40D/Q125H/Q99R/R33Q/R42F/S133A/S66N/T210M/V115G/W38K/Y107V/Y59G/Y89S); settings: DRB1 *0901
HLA-DR DRB1*0701 (DR7) = HLA-DR DRB1*0701 (DR7) (Homo sapiens, UniProt P01903+P01911, A100R/A102G/A103Q/D57E/D86V/E43K/F76Y/K127E/L162R/M171V/P40G/Q125H/Q99D/R33Q/R42Y/R54Q/S133A/S66F/T210M/V115G/Y107V/Y59L/Y89S); settings: DRB1 *0701
HLA-DR DRB4*0101 (DR53) = HLA-DR DRB4*0101 (DR53) (Homo sapiens, UniProt P01903+P13762, G164S); settings: DRB4 *0101

Chain of HLA-DR DRB1*0301 (DR3) (P01903 26-254 limits assumed, other chains not shown): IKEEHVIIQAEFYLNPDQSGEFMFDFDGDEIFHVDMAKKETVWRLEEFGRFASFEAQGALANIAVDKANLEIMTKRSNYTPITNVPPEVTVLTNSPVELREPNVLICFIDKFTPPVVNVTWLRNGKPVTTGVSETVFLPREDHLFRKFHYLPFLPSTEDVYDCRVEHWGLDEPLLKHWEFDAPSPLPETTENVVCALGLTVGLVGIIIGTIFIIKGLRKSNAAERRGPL
Chain of HLA-DR DRB1*1101 (DR11) (P01903 26-254 limits assumed, other chains not shown): as above
Chain of HLA-DR DRB1*1302 (DR13) (P01903 26-254 limits assumed, other chains not shown): as above

Row | Molecule | IC50 (HLA-DR DRB1*1501 (DR15)) | IC50 (HLA-DR DRB1*1101 (DR11)) | IC50 (HLA-DR DRB1*0101 (DR1)) | IC50 (HLA-DR DRB1*1302 (DR13)) | IC50 (HLA-DR DRB1*0301 (DR3)) | IC50 (HLA-DR DRB3*0101 (DR52)) | IC50 (HLA-DR DRB1*0802 (DR8)) | IC50 (HLA-DR DRB1*0401 (DR4)) | IC50 (HLA-DR DRB5*0101 (DR51)) | IC50 (HLA-DR DRB1*0901 (DR9)) | IC50 (HLA-DR DRB1*0701 (DR7)) | IC50 (HLA-DR DRB4*0101 (DR53))
1 | CC[C@H](C)[C@H](NC(=O)[C@H](CO)NC(=O)[C@H](CO)NC(=O)[C@H](CC(=O)O)NC(=O)[C@H](C)NC(=O)[C@H](CC(N)=O)NC(=O)[C@@H](NC(=O)[C@H](Cc1ccc(O)cc1)NC(=O)[C@H](C)NC(=O)[C@@H](N)C(C)C)[C@@H](C)CC)C(=O)N[C@@H](CCC(=O)O)C(=O)NCC(=O)N[C@@H](CC(N)=O)C(=O)N[C@@H](Cc1ccc(O)cc1)C(=O)N[C@H](C(=O)O)[C@@H](C)O | > 3490 nM | > 18900 nM | 4720 nM | 2150 nM | 531 nM | 471 nM | 106000 nM | 411 nM | > 37800 nM | 5470 nM | 9740 nM | 841 nM
2 | LHLLSNDMCARAYSE | > 2370 nM | 26000 nM | 2100 nM | 1880 nM | 938 nM | 1310 nM | 50200 nM | 4280 nM | 28800 nM | 59900 nM | 27700 nM | 324 nM
3 | HPQWVLTAAHCLKKN | 1220 nM | 981 nM | 22 nM | 483 nM | 1100 nM | 8110 nM | 1690 nM | 875 nM | 11 nM | 822 nM | 563 nM | 1110 nM
4 | CC[C@H](C)[C@H](NC(=O)[C@H](CO)NC(=O)[C@H](CC(N)=O)NC(=O)[C@H](C)NC(=O)[C@H](CC(C)C)NC(=O)[C@H](CCC(=O)O)NC(=O)[C@H](Cc1ccccc1)NC(=O)[C@@H](NC(=O)[C@H](CCSC)NC(=O)CN)C(C)C)C(=O)N[C@H](C(=O)N[C@@H](CC(C)C)C(=O)N1CCC[C@H]1C(=O)N[C@@H](Cc1ccccc1)C(=O)N[C@@H](CC(=O)O)C(=O)O)C(C)C | 83 nM | > 50000 nM | 15 nM | 12 nM | 4600 nM | 234 nM | 5000 nM | 230 nM | 903 nM | 81 nM | 30 nM | 4150 nM
5 | NSRLLQERGVAYINA | 1230 nM | 12800 nM | 614 nM | 327 nM | 318 nM | 3370 nM | 3220 nM | – | 3470 nM | 2620 nM | 8000 nM | 699 nM
6 | CC[C@H](C)[C@H](NC(=O)[C@H](CCCCN)NC(=O)[C@H](CCSC)NC(=O)[C@H](CC(=O)O)NC(=O)[C@H](CCCNC(=N)N)NC(=O)[C@H](CCC(=O)O)NC(=O)[C@H](CC(C)C)NC(=O)[C@H](CCCCN)NC(=O)[C@H](Cc1ccccc1)NC(=O)[C@@H](N)Cc1ccccc1)C(=O)N[C@@H](CC(N)=O)C(=O)N[C@@H](CS)C(=O)N[C@@H](CO)C(=O)NCC(=O)N[C@@H](CCCCN)C(=O)O | > 3490 nM | 9690 nM | 4420 nM | 382 nM | 121 nM | 4920 nM | 8110 nM | 483 nM | 3800 nM | > 52300 nM | > 23100 nM | 98 nM
7 | CSCC[C@H](NC(=O)[C@H](CC(C)C)NC(=O)[C@@H]1CCCN1C(=O)[C@@H](NC(=O)[C@@H](N)CS)[C@@H](C)O)C(=O)N[C@@H](Cc1ccc(O)cc1)C(=O)N[C@@H](CO)C(=O)N[C@@H](CC(C)C)C(=O)N[C@H](C(=O)N[C@@H](Cc1c[nH]cn1)C(=O)N[C@@H](CC(N)=O)C(=O)N[C@@H](CC(C)C)C(=O)N[C@H](C(=O)N[C@@H](CCCCN)C(=O)N[C@@H](CCC(=O)O)C(=O)O)[C@@H](C)O)C(C)C | 426 nM | 590 nM | 93 nM | 260 nM | 19400 nM | 18300 nM | 223 nM | – | 36 nM | 249 nM | 140 nM | 58 nM
8 | CC(C)C[C@H](NC(=O)[C@H](CO)NC(=O)[C@H](CC(C)C)NC(=O)[C@H](CO)NC(=O)[C@H](C)NC(=O)[C@H](C)NC(=O)[C@H](CCCNC(=N)N)NC(=O)[C@H](C)NC(=O)[C@H](CC(C)C)NC(=O)[C@H](CC(C)C)NC(=O)[C@H](CC(C)C)NC(=O)[C@@H]1CCCN1C(=O)[C@H](C)NC(=O)[C@H](C)N)C(=O)NCC(=O)O | 35 nM | 100 nM | 6.8 nM | 3.2 nM | 35400 nM | 10500 nM | 30 nM | – | 79 nM | 64 nM | 160 nM | 79 nM
9 | YLVTGERGFFYTPKT | > 25600 nM | 7620 nM | 779 nM | 2100 nM | 517 nM | 13700 nM | 29200 nM | > 20500 nM | > 28400 nM | 6300 nM | 7740 nM | 20700 nM
10 | CSCC[C@H](NC(=O)[C@H](CC(C)C)NC(=O)[C@H](CC(=O)O)NC(=O)[C@@H](N)Cc1c[nH]cn1)C(=O)N[C@@H](CC(C)C)C(=O)N[C@@H](CC(C)C)C(=O)N[C@@H](CCCNC(=N)N)C(=O)N[C@@H](CC(C)C)C(=O)N[C@@H](CO)C(=O)N[C@@H](CCC(=O)O)C(=O)N1CCC[C@H]1C(=O)N[C@@H](C)C(=O)N[C@@H](CCC(=O)O)C(=O)N[C@@H](CC(C)C)C(=O)N[C@H](C(=O)O)[C@@H](C)O | 662 nM | 2140 nM | 62 nM | 2.3 nM | 2870 nM | 5310 nM | 3910 nM | 6190 nM | 10500 nM | 22 nM | 152 nM | 45 nM
11 | CSCC[C@H](NC(=O)[C@@H]1CCCN1C(=O)[C@@H](N)CC(=O)O)C(=O)N[C@@H](Cc1ccccc1)C(=O)N[C@@H](CCCCN)C(=O)N[C@@H](Cc1ccc(O)cc1)C(=O)N[C@@H](Cc1c[nH]cn1)C(=O)N[C@@H](CC(C)C)C(=O)N[C@H](C(=O)N[C@H](C(=O)N[C@@H](C)C(=O)N[C@@H](CCC(N)=O)C(=O)N[C@H](C(=O)N[C@@H](CCCNC(=N)N)C(=O)NCC(=O)O)C(C)C)C(C)C)[C@@H](C)O | 230 nM | 69 nM | 5.7 nM | 699 nM | > 75000 nM | 7300 nM | 43 nM | 9.1 nM | 11 nM | 258 nM | 168 nM | 467 nM
12 | YDPLYCESVHNFTLP | 2140 nM | 30200 nM | 1600 nM | > 35000 nM | 16600 nM | > 8830 nM | 30900 nM | – | 28800 nM | 643 nM | 838 nM | 6900 nM
13 | EVFFQRLGIASGRAR | 4560 nM | 31 nM | 28 nM | 17500 nM | > 75000 nM | > 15000 nM | 6.3 nM | – | 7.9 nM | 2980 nM | 5310 nM | 51 nM
